Data on 28 molecules can be found in patent US8563542B2 (Cyclacel Limited, priority 2007, dated 2013).

Each structure is given as a SMILES string.

For the assay, the target named is PLK1 (Homo sapiens, UniProt P53350). Briefly: PLK1 protein kinase assay (CDC25C phosphorylation, [γ-32P]-ATP). It counts as biochemical. The note with it: Table 2, PLK1 IC50; class symbols; read-out: PLK1 IC50.
Chain of PLK1 (P53350 whole entry): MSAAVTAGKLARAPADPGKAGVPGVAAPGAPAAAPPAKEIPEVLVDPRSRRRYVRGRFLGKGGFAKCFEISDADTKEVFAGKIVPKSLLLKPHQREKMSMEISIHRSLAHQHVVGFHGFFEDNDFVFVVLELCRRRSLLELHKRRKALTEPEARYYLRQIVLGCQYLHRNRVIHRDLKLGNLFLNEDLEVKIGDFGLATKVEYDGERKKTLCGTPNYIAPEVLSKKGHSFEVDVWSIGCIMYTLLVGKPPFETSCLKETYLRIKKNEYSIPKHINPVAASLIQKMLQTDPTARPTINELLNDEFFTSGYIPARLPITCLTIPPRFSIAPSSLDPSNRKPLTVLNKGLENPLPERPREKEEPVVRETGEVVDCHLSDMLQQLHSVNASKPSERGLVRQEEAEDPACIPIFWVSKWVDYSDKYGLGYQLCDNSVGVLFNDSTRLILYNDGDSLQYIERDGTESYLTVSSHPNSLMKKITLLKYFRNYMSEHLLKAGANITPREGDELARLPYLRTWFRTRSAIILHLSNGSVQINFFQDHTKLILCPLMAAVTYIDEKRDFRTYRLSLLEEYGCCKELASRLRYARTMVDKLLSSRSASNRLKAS

On to `COc1cc(C(=O)NC2CN3CCC2CC3)ccc1Nc1ncc2c(n1)N(C1CCCC1)CCC(=O)N2C` (stereo not shown) [compound 161, N-(1-Aza-bicyclo[2.2.2]oct-3-yl)-4-(9-cyclopentyl-5-methyl-6-oxo-6,7,8,9-tetrahydro-5H-pyrimido[4,5-b][1,4]diazepin-2-ylamino)-3-methoxy-benzamide], for which the IC50 is less than 100 nM. The same measure for `COc1cc(C(=O)NC2CC(C)(C)N(C)C(C)(C)C2)ccc1Nc1ncc2c(n1)N(C1CCCC1)CCC(=O)N2C` [compound 162, 4-(9-Cyclopentyl-5-methyl-6-oxo-6,7,8,9-tetrahydro-5H-pyrimido[4,5-b][1,4]diazepin-2-ylamino)-3-methoxy-N-(1,2,2,6,6-pentamethyl-piperidin-4-yl)-benzamide]: less than 100 nM; for `COc1cc(C(=O)NC2CCCN(C)C2)ccc1Nc1ncc2c(n1)N(C1CCCC1)CCC(=O)N2C` (stereo not shown) [compound 163, 4-(9-Cyclopentyl-5-methyl-6-oxo-6,7,8,9-tetrahydro-5H-pyrimido[4,5-b][1,4]diazepin-2-ylamino)-3-methoxy-N-(1-methyl-piperidin-3-yl)-benzamide]: less than 100 nM. Turning to `CCC(O)CNC(=O)c1ccc(Nc2ncc3c(n2)N(C2CCCC2)CCC(=O)N3C)c(OC)c1` (stereo not shown) [compound 164, 4-(9-Cyclopentyl-5-methyl-6-oxo-6,7,8,9-tetrahydro-5H-pyrimido[4,5-b][1,4]diazepin-2-ylamino)-N-(2-hydroxy-butyl)-3-methoxy-benzamide], the IC50 was less than 1000 nM. The same measure for `COc1cc(C(=O)NCC(C)(C)CN(C)C)ccc1Nc1ncc2c(n1)N(C1CCCC1)CCC(=O)N2C` [compound 165, 4-(9-Cyclopentyl-5-methyl-6-oxo-6,7,8,9-tetrahydro-5H-pyrimido[4,5-b][1,4]diazepin-2-ylamino)-N-(3-dimethylamino-2,2-dimethyl-propyl)-3-methoxy-benzamide]: less than 100 nM; for `COc1cc(C(=O)NCCO)ccc1Nc1ncc2c(n1)N(C1CCCC1)CCC(=O)N2C` [compound 166, 4-(9-Cyclopentyl-5-methyl-6-oxo-6,7,8,9-tetrahydro-5H-pyrimido[4,5-b][1,4]diazepin-2-ylamino)-N-(2-hydroxy-ethyl)-3-methoxy-benzamide]: less than 1000 nM; for `COc1cc(C(=O)N(CCO)CCO)ccc1Nc1ncc2c(n1)N(C1CCCC1)CCC(=O)N2C` [compound 167, 4-(9-Cyclopentyl-5-methyl-6-oxo-6,7,8,9-tetrahydro-5H-pyrimido[4,5-b][1,4]diazepin-2-ylamino)-N,N-bis-(2-hydroxy-ethyl)-3-methoxy-benzamide]: less than 10000 nM.

For `COc1cc(C(=O)NCCOCCO)ccc1Nc1ncc2c(n1)N(C1CCCC1)CCC(=O)N2C` [compound 168, 4-(9-Cyclopentyl-5-methyl-6-oxo-6,7,8,9-tetrahydro-5H-pyrimido[4,5-b][1,4]diazepin-2-ylamino)-N-[2-(2-hydroxy-ethoxy)-ethyl]-3-methoxy-benzamide], the IC50 is less than 1000 nM. The same measure for `CONC(=O)c1ccc(Nc2ncc3c(n2)N(C2CCCC2)CCC(=O)N3C)c(OC)c1` [compound 169, 4-(9-Cyclopentyl-5-methyl-6-oxo-6,7,8,9-tetrahydro-5H-pyrimido[4,5-b][1,4]diazepin-2-ylamino)-3,N-dimethoxy-benzamide]: less than 1000 nM. The same measure for `CCN(CC)CCNC(=O)c1ccc(Nc2ncc3c(n2)N(C2CCCC2)CC2(CC2)C(=O)N3C)c(OC)c1` [compound 182, 4-(9-Cyclopentyl-5-methyl-6-oxo-6,7,8,9-tetrahydro-5H-spiro[pyrimido[4,5-b][1,4]diazepin-3,1′-cyclopropane]-2-ylamino)-N-(2-diethylamino-ethyl)-3-methoxy-benzamide]: less than 100 nM; for `COc1cc(C(=O)NCCCN(C)C)ccc1Nc1ncc2c(n1)N(C1CCCC1)CC1(CC1)C(=O)N2C` [compound 183]: less than 100 nM.

As to `COc1cc(C(=O)NCCCCO)ccc1Nc1ncc2c(n1)N(C1CCCC1)CC1(CC1)C(=O)N2C` [compound 185, 4-(9-Cyclopentyl-5-methyl-6-oxo-6,7,8,9-tetrahydro-5H-spiro[pyrimido[4,5-b][1,4]diazepin-3,1′-cyclopropane]-2-ylamino)- -N-(4-hydroxy-butyl)-3-methoxy-benzamide], the IC50 was less than 100 nM. The same measure for `COc1cc(C(=O)NC2CCCN(C)C2)ccc1Nc1ncc2c(n1)N(C1CCCC1)CC1(CC1)C(=O)N2C` (stereo not shown) [compound 187, 4-(9-Cyclopentyl-5-methyl-6-oxo-6,7,8,9-tetrahydro-5H-spiro[pyrimido[4,5-b][1,4]diazepin-3,1-cyclopropane]-2-ylamino)-3-methoxy-N-(1-methyl-piperidin-3-yl)-benzamide]: less than 100 nM; for `COc1cc(C(=O)NCCO)ccc1Nc1ncc2c(n1)N(C1CCCC1)CC1(CC1)C(=O)N2C` [compound 188, 4-(9-Cyclopentyl-5-methyl-6-oxo-6,7,8,9-tetrahydro-5H-spiro[pyrimido[4,5-b][1,4]diazepin-3,1′-cyclopropane]-2-ylamino)-N-(2-hydroxy-ethyl)-3-methoxy-benzamide]: less than 100 nM; for `COc1cc(C(=O)NCCOCCO)ccc1Nc1ncc2c(n1)N(C1CCCC1)CC1(CC1)C(=O)N2C` [compound 189, 4-(9-Cyclopentyl-5-methyl-6-oxo-6,7,8,9-tetrahydro-5H-spiro[pyrimido[4,5-b][1,4]diazepin-3,1′-cyclopropane]-2-ylamino)-N-[2-(2-hydroxy-ethoxy)-ethyl]-3-methoxy-benzamide]: less than 100 nM. For `CONC(=O)c1ccc(Nc2ncc3c(n2)N(C2CCCC2)CC2(CC2)C(=O)N3C)c(OC)c1` [compound 190, 4-(9-Cyclopentyl-5-methyl-6-oxo-6,7,8,9-tetrahydro-5H-spiro[pyrimido[4,5-b][1,4]diazepin-3,1′-cyclopropane]-2-ylamino)-3,N-dimethoxy-benzamide], the half-inhibitory concentration (IC50) was less than 100 nM. Consider `CN1C(=O)CCN(C2CCCC2)c2nc(NC(=O)c3ccccc3)ncc21` [compound 193, N-(9-Cyclopentyl-5-methyl-6-oxo-6,7,8,9-tetrahydro-5H-pyrimido[4,5-b][1,4]diazepin-2-yl)-benzamide], for which the IC50 was less than 10000 nM. The same measure for `COc1cc(C(=O)NCC2CCN(C)CC2)ccc1Nc1ncc2c(n1)N(C1CCCC1)CC(C)(C)C(=O)N2C` [compound 196]: less than 100 nM; for `COc1cc(C(=O)NC2CCN(Cc3ccccc3)CC2)ccc1Nc1ncc2c(n1)N(C1CCCC1)CC(C)(C)C(=O)N2C` [compound 197, N-(1-Benzyl-piperidin-4-yl)-4-(9-cyclopentyl-5,7,7-trimethyl-6-oxo-6,7,8,9-tetrahydro-5H-pyrimido[4,5-b][1,4]diazepin-2-ylamino)-3-methoxy-benzamide]: less than 100 nM; for `COCCNC(=O)c1ccc(Nc2ncc3c(n2)N(C2CCCC2)CC(C)(C)C(=O)N3C)c(OC)c1` [compound 198, 4-(9-Cyclopentyl-5,7,7-trimethyl-6-oxo-6,7,8,9-tetrahydro-5H-pyrimido[4,5-b][1,4]diazepin-2-ylamino)-3-methoxy-N-(2-methoxy-ethyl)-benzamide]: less than 1000 nM. The same measure for `COc1cc(C(=O)NCc2ccncc2)ccc1Nc1ncc2c(n1)N(C1CCCC1)CC(C)(C)C(=O)N2C` [compound 199, 4-(9-Cyclopentyl-5,7,7-trimethyl-6-oxo-6,7,8,9-tetrahydro-5H-pyrimido[4,5-b][1,4]diazepin-2-ylamino)-3-methoxy-N-pyridin-4-yl-ylmethyl-benzamide]: less than 100 nM. To `COc1cc(C(=O)NCCc2c[nH]cn2)ccc1Nc1ncc2c(n1)N(C1CCCC1)CC(C)(C)C(=O)N2C` [compound 200, 4-(9-Cyclopentyl-5,7,7-trimethyl-6-oxo-6,7,8,9-tetrahydro-5H-pyrimido[4,5-b][1,4]diazepin-2-ylamino)-N-[2-(1H-imidazol-4-yl)-ethyl]-3-methoxy-benzamide] belongs less than 100 nM; to `COc1cc(C(=O)NCc2ccco2)ccc1Nc1ncc2c(n1)N(C1CCCC1)CC(C)(C)C(=O)N2C` [compound 201, 4-(9-Cyclopentyl-5,7,7-trimethyl-6-oxo-6,7,8,9-tetrahydro-5H-pyrimido[4,5-b][1,4]diazepin-2-ylamino)-N-furan-2-ylmethyl-3-methoxy-benzamide], less than 100 nM.

For `COc1cc(C(=O)NCC2CCCCN2C)ccc1Nc1ncc2c(n1)N(C1CCCC1)CCC(=O)N2C` (stereo not shown) [compound 202, 4-(9-Cyclopentyl-5-methyl-6-oxo-6,7,8,9-tetrahydro-5H-pyrimido[4,5-b][1,4]diazepin-2-ylamino)-3-methoxy-N-(1-methyl-piperidin-2-ylmethyl)-benzamide], the IC50 is less than 100 nM. The same measure for `COc1cc(C(=O)NCCN2CCOCC2)ccc1Nc1ncc2c(n1)N(C1CCCC1)CCC(=O)N2C` [compound 203, 4-(9-Cyclopentyl-5-methyl-6-oxo-6,7,8,9-tetrahydro-5H-pyrimido[4,5-b][1,4]diazepin-2-ylamino)-3-methoxy-N-(2-morpholin-4-yl-ethyl)-benzamide]: less than 1000 nM. The same measure for `COc1cc(C(=O)NC2CCCC2)ccc1Nc1ncc2c(n1)N(C1CCCC1)CCC(=O)N2C` [compound 204, N-Cyclopentyl-4-(9-cyclopentyl-5-methyl-6-oxo-6,7,8,9-tetrahydro-5H-pyrimido[4,5-b][1,4]diazepin-2-ylamino)-3-methoxy-benzamide]: less than 100 nM; for `COc1cc(C(=O)NCc2cccn2C)ccc1Nc1ncc2c(n1)N(C1CCCC1)CCC(=O)N2C` [compound 205, 4-(9-Cyclopentyl-5-methyl-6-oxo-6,7,8,9-tetrahydro-5H-pyrimido[4,5-b][1,4]diazepin-2-ylamino)-3-methoxy-N-(1-methyl-1H-pyrrol-2-ylmethyl)-benzamide]: less than 100 nM. The same measure for `COc1cc(C(=O)NC2CCNCC2)ccc1Nc1ncc2c(n1)N(C1CCCC1)CCC(=O)N2C` [compound 206, 4-(9-Cyclopentyl-5-methyl-6-oxo-6,7,8,9-tetrahydro-5H-pyrimido[4,5-b][1,4]diazepin-2-ylamino)-3-methoxy-N-piperidin-4-yl-benzamide]: less than 100 nM.
